From patent JPH07501070A, “3−ピリジノール誘導体およびその医薬的使用” (スミスクライン・ビーチャム・パブリック・リミテッド・カンパニー, priority 1991, dated 1993) come the findings set out here.

The test system of this experiment is guinea pig trachea [モルモット・気管]. Nature of the experiment: Bronchodilation in vitro (spontaneous tension of tracheal spirals). The settings on record: Cavia porcellus, Krebs solution, cumulative addition, read-out: IC50 (concentration inhibiting spontaneously generated tension by 50%).

Each structure is given as a SMILES string.

Consider `CCOP(=O)(O)c1ncc(-c2ccc3ccccc3c2)cc1O` [実施例1, [5−(2−ナフチル)−3−ヒドロキシ−2−ピリジル]ホスホン酸エチル], for which the IC50 amounted to 100 µM.
